Experimental findings from patent publication US20240174696A1, “2,8-DIAZASPIRO[4.5]DECANE COMPOUNDS” (Genentech, Inc., priority 2021, published 2024) are described below.

Counter-ions that a name gives are not always drawn.

The target of the experiment is Human LATS2 catalytic domain (Homo sapiens (Human), UniProt Q9NRM7). In words: LATS2 High ATP HTRF Assay. To be noted: no asterisk: LATS2 High ATP HTRF Assay, 5000 μM ATP, 0.05 nM LATS2. It counts as biochemical. As for the experimental part:
Human LATS2 catalytic domain which contains the amino acids G553-V1088 (accession NP_055387) was purified in-house. The LATS2 catalytic domain was co-purified with Mob1b (accession NP_775739). The LATS2 biochemical HTRF assay was performed using the HTRF KinEASE-STK S1 Kit (Cisbio, Cat #62ST1PEC), following the protocol from the manufacturer. Compounds were dispensed by the Echo Liquid Handler (Labcyte) into a white 384-well plate (PerkinElmer, Cat #6008289). 3 uL of 2×LATS2 enzyme solution was added to the compounds, following by a 10 minute incubation at room temperature. Then, 2×ATP and STK S1 peptide solution was added to initiate the one hour enzyme reaction at room temperature. The final condition of the reaction was 0.2 nM LATS2, 50 μM ATP, 0.5 μM STK S1 peptide in 50 mM HEPES pH7.2, 10 mM MgCl2, 0.1% BGG, 0.005% Brij-35, 1 mM DTT. The reaction was quenched by adding 6 uL of the detection mixture which contained Streptavidin XL665 and STK Antibody-Cryptate (Cisbio), incubate for 1 hour at room temperature. The HTRF (665 nm/620 nm) signal was read on the Envision plater reader (PerkinElmer). The IC50 values were determined by fitting the % inhibition with a nonlinear four-parameter logistical equation. The Ki values were calculated using the Cheng-Prusoff equation for a competitive inhibitor, IC50═Ki (1+S/Km)+M [E] with ATP Km for LATS2=105 μM.
The LATS2 high ATP HTRF assay was performed using the same protocol as the Standard LATS2 HTRF assay. The final condition of the reaction was 0.05 nM LATS2, 5000 μM ATP, 0.5 μM STK S1 peptide in 50 mM HEPES pH7.2, 10 mM MgCl2, 0.1% BGG, 0.005% Brij-35, 1 mM DTT and the 2 hours enzyme reaction at room temperature.

Sequence of Human LATS2 catalytic domain (Q9NRM7 553-1088): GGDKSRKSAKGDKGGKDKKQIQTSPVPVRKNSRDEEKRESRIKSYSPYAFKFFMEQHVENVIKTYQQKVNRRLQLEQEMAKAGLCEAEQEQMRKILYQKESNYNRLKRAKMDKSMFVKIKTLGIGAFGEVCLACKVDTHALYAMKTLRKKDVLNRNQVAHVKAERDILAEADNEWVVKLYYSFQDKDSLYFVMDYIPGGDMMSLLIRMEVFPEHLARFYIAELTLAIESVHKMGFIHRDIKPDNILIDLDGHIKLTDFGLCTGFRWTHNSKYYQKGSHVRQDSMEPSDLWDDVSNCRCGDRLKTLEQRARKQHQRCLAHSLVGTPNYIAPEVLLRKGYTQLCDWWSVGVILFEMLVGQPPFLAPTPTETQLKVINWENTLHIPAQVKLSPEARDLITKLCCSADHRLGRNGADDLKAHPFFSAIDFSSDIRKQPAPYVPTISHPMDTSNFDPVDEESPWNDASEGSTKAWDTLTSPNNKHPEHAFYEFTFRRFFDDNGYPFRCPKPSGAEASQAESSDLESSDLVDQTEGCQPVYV
Sequence of Human LATS2 catalytic domain (Q7L9L4 whole entry partner, the tested form may be a part): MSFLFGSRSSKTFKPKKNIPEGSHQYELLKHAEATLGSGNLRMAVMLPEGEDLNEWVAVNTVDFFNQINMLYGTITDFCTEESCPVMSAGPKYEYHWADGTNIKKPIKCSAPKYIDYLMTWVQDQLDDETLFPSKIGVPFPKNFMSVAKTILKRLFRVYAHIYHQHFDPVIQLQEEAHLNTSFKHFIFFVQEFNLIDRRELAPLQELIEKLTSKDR

In turn, `c1ccc(N2CCC3(CCN(c4nc(-c5ccncc5)nc5cnccc45)CC3)C2)cc1` [Compound 140, 4-(2-phenyl-2,8-diazaspiro[4.5]decan-8-yl)-2-(pyridin-4-yl)pyrido[3,4-d]pyrimidine] showed a Ki of 88.4 nM.
The molecule `N#Cc1cnccc1-c1nc(N2CCC3(CCNC3)CC2)c2ccncc2n1` [Compound 183, 4-(4-(2,8-diazaspiro[4.5]decan-8-yl)pyrido[3,4-d]pyrimidin-2-yl)nicotinonitrile] had a Ki of 17.5 nM.
`Fc1[nH]ncc1-c1nc(N2CCC3(CCNC3)CC2)c2ccncc2n1` [Compound 188, 2-(5-fluoro-1H-pyrazol-4-yl)-4-(2,8-diazaspiro[4.5]decan-8-yl)pyrido[3,4-d]pyrimidine] came in with a Ki of 5.96 nM.
In turn, `N#Cc1[nH]ncc1-c1nc(N2CCC3(CCNC3)CC2)c2ccncc2n1` [Compound 155, 4-(4-(2,8-diazaspiro[4.5]decan-8-yl)pyrido[3,4-d]pyrimidin-2-yl)-1H-pyrazole-5-carbonitrile] had a Ki of 51.4 nM.
With `c1cc(-c2cc(N3CCC4(CCNC4)CC3)c3ccncc3n2)ccn1` [Example 200, 2-(Pyridin-4-yl)-4-(2,8-diazaspiro[4.5]decan-8-yl)-1,7-naphthyridine], the Ki stood at 14.6 nM.
The result for `c1cc(-c2nc(N3CCC4(CCN(c5cc[nH]n5)C4)CC3)c3ccncc3n2)ccn1` [Compound 139, 4-(2-(1H-pyrazol-3-yl)-2,8-diazaspiro[4.5]decan-8-yl)-2-(pyridin-4-yl)pyrido[3,4-d]pyrimidine] reads 19.1 nM; that for `CCC(=O)NCc1cc2c(N3CCC4(CCNC4)CC3)nc(-c3ccncc3)nc2cn1` [Compound 159, N-((2-(pyridin-4-yl)-4-(2,8-diazaspiro[4.5]decan-8-yl)pyrido[3,4-d]pyrimidin-6-yl)methyl)propionamide], 6.58 nM.
Turning to `Cc1n[nH]cc1-c1nc(N2CCC3(CCN(C)C3)CC2)c2cc(CC(F)(F)F)ncc2n1` [Compound 194, 2-(3-methyl-1H-pyrazol-4-yl)-4-(2-methyl-2,8-diazaspiro[4.5]decan-8-yl)-6-(2,2,2-trifluoroethyl)pyrido[3,4-d]pyrimidine], the Ki worked out at 0.12 nM.
In turn, `CN1CCC2(CCN(c3nc(-c4ccncc4)nc4c(C#N)nccc34)CC2)C1` [Compound 284, 4-(2-Methyl-2,8-diazaspiro[4.5]decan-8-yl)-2-(pyridin-4-yl)pyrido[3,4-d]pyrimidine-8-carbonitrile] had an inhibition constant (Ki) of 4.1 nM.
Consider `[O-][n+]1ccc2c(N3CCC4(CCNC4)CC3)nc(-c3ccncc3)nc2c1` [Example 207, 2-(pyridin-4-yl)-4-(2,8-diazaspiro[4.5]decan-8-yl)pyrido[3,4-d]pyrimidine 7-oxide], for which the affinity, expressed as Ki, was 23 nM.
The result for `COc1nccc2c(N3CCC4(CCN(C)C4)CC3)nc(-c3ccncc3)nc12` [Example 203, 8-methoxy-4-(2-methyl-2,8-diazaspiro[4.5]decan-8-yl)-2-(pyridin-4-yl)pyrido[3,4-d]pyrimidine] reads 80.2 nM; that for `CC(=O)N1CCC2(CCN(c3nc(-c4ccncc4)nc4cnccc34)CC2)C1` [Compound 125, 1-(8-(2-(pyridin-4-yl)pyrido[3,4-d]pyrimidin-4-yl)-2,8-diazaspiro[4.5]decan-2-yl)ethan-1-one], 16.7 nM; that for `COc1cncc2nc(-c3cn[nH]c3C)nc(N3CCC4(CCN(CC(F)F)C4)CC3)c12` [Compound 281, 4-(2-(2,2-difluoroethyl)-2,8-diazaspiro[4.5]decan-8-yl)-5-methoxy-2-(5-methyl-1H-pyrazol-4-yl)pyrido[3,4-d]pyrimidine], 0.015 nM.
As to `Cc1nn(C)cc1-c1nc(N2CCC3(CC2)CCN(C2CCCC2)C3)c2ccncc2n1` [Example 208, 4-(2-cyclopentyl-2,8-diazaspiro[4.5]decan-8-yl)-2-(1,3-dimethyl-1H-pyrazol-4-yl)pyrido[3,4-d]pyrimidine], the Ki turned out to be 60 nM.
In turn, `CN1CCC2(CCN(c3nc(-c4ccncc4)nc4cnc(CC(F)(F)F)cc34)CC2)C1` [Compound 195, 4-(2-methyl-2,8-diazaspiro[4.5]decan-8-yl)-2-(pyridin-4-yl)-6-(2,2,2-trifluoroethyl)pyrido[3,4-d]pyrimidine] displayed a Ki of 0.039 nM.
For `Cc1n[nH]cc1-c1nc(N2CCC3(CCN(CCS(=O)(=O)N(C)C)C3)CC2)c2ccncc2n1` [Example 210, N,N-dimethyl-2-(8-(2-(3-methyl-1H-pyrazol-4-yl)pyrido[3,4-d]pyrimidin-4-yl)-2,8-diazaspiro[4.5]decan-2-yl)ethanesulfonamide], the Ki was 0.25 nM.
The molecule `Cc1cnsc1-c1nc(N2CCC3(CCNC3)CC2)c2ccncc2n1` [Compound 244, 5-(4-(2,8-diazaspiro[4.5]decan-8-yl)pyrido[3,4-d]pyrimidin-2-yl)-4-methylisothiazole] had a Ki of 13 nM.
The result for `CN(C)C(=O)C1CC2(CCN(c3nc(-c4ccncc4)nc4cnccc34)CC2)CN1` (centres unmarked) [Compound 173, N,N-dimethyl-8-(2-(pyridin-4-yl)pyrido[3,4-d]pyrimidin-4-yl)-2,8-diazaspiro[4.5]decane-3-carboxamide] reads 7.4 nM.
The result for `CN1CCC2(CCN(c3nc(-c4ccncc4)nc4cnc(C(F)(F)F)cc34)CC2)C1` [Example 209, 4-(2-methyl-2,8-diazaspiro[4.5]decan-8-yl)-2-(pyridin-4-yl)-6-(trifluoromethyl)pyrido[3,4-d]pyrimidine] reads 45 nM.
The molecule `c1cc(-c2nc(N3CCC4(CCNC4)CC3)c3c(C4CC4)cncc3n2)ccn1` [Compound 191, 5-cyclopropyl-2-(pyridin-4-yl)-4-(2,8-diazaspiro[4.5]decan-8-yl)pyrido[3,4-d]pyrimidine] showed a Ki of 0.028 nM.
In turn, `c1cc(-c2cc(N3CCC4(CCNC4)CC3)c3ccncc3n2)ncn1` [Example 201, 2-(pyrimidin-4-yl)-4-(2,8-diazaspiro[4.5]decan-8-yl)-1,7-naphthyridine trifluoroacetate] showed a Ki of 11.3 nM.
Consider `O=C(C1CC2(CCN(c3nc(-c4ccncc4)nc4cnccc34)CC2)CN1)N1CCCC1` (centres unmarked) [Compound 174, (8-(2-(pyridin-4-yl)pyrido[3,4-d]pyrimidin-4-yl)-2,8-diazaspiro[4.5]decan-3-yl)(pyrrolidin-1-yl)methanone], for which the affinity, expressed as Ki, was 11.1 nM.
Molecule `COc1cncc2nc(-c3ccncc3)nc(N3CCC4(CCN(CC5(F)COC5)C4)CC3)c12` [Compound 282, 4-[2-[(3-Fluorooxetan-3-yl)methyl]-2,8-diazaspiro[4.5]decan-8-yl]-5-methoxy-2-(4-pyridyl)pyrido[3,4-d]pyrimidine] registered a Ki of 0.039 nM.
Take `FC(F)(F)Cc1cc2c(N3CCC4(CCNC4)CC3)nc(-c3ccncc3)nc2cn1` [Compound 193, 2-(pyridin-4-yl)-4-(2,8-diazaspiro[4.5]decan-8-yl)-6-(2,2,2-trifluoroethyl)pyrido[3,4-d]pyrimidine]: the Ki was found to be 0.041 nM.
The molecule `O=C(C1CC2(CCN(c3nc(-c4ccncc4)nc4cnccc34)CC2)CN1)N1CCOCC1` (centres unmarked) [Compound 175, morpholino(8-(2-(pyridin-4-yl)pyrido[3,4-d]pyrimidin-4-yl)-2,8-diazaspiro[4.5]decan-3-yl)methanone] yielded a Ki of 22.6 nM.
With `COc1cncc2nc(-c3ccncc3)nc(N3CCC4(CCN(CC(C)(O)C(F)(F)F)C4)CC3)c12` (centres unmarked) [Compound 283, 1,1,1-Trifluoro-3-[8-[5-methoxy-2-(4-pyridyl)pyrido[3,4-d]pyrimidin-4-yl]-2,8-diazaspiro[4.5]decan-2-yl]-2-methyl-propan-2-ol], affinity was put at a Ki of 0.096 nM.
